Reference: patent US10654837B2, “Sulphamoylaryl derivatives and use thereof as medicaments for the treatment of liver fibrosis” (Janssen Pharmaceutica NV, priority 2017, dated 2020)

Target: T1, 5HTR2B (Homo sapiens, UniProt P41595)
T1 construct: host or cells: human Maverick/293 cells
Assay: 5HTR2B antagonist activity, calcium mobilization assay in human Maverick/293 cells (serotonin as agonist)
Assay type: cell-based
Conditions: intracellular calcium, emission 525 nm, read-out: Ca assay IC50
Outline: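 Serum-starved (2 h) human Maverick/293 cells loaded with calcium dye for 50 min at 37 °C, then antagonist preincubated 15-30 min before serotonin challenge. Calcium fluorescence (ex 485/em 525 nm) recorded for 80 s; peak-based % inhibition fitted sigmoidally for IC50.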

T1 sequence (P41595 whole entry): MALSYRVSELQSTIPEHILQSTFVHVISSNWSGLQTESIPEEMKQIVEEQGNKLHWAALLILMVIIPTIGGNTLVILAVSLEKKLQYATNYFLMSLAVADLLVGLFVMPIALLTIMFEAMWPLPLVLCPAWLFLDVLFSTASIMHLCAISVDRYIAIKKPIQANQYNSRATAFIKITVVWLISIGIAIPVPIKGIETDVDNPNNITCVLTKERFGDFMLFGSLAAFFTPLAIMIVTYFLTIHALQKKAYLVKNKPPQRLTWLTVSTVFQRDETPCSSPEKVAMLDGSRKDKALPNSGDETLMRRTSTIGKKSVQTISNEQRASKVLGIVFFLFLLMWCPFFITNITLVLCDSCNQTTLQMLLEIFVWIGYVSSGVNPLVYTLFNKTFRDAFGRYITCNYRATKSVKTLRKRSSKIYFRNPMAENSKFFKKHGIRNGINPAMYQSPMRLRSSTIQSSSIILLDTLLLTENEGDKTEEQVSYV

SMILES | IC50
COc1ccc(S(=O)(=O)NC2CNC2)cc1C(=O)Nc1ccc(F)c(C)n1 [Compound 169, 5-(N-(Azetidin-3-yl)sulfamoyl)-N-(5-fluoro-6-methylpyridin-2-yl)-2-Methoxy benzamide] | 65 nM
COc1ccc(S(=O)(=O)NCC(O)C(F)(F)F)cc1C(=O)Nc1ccc(F)c(C)n1 (single isomer, unassigned) [Compound 23b, (S*)—N-(5-fluoro-6-methylpyridin-2-yl)-2-methoxy-5-(N-(3,3,3-trifluoro-2-hydroxypropyl)sulfamoyl)benzamide] | 5 nM
CNS(=O)(=O)c1ccc(OC)c(C(=O)Nc2ccc(F)c(C)n2)c1 [Compound 24] | 47 nM
COc1ccc(S(=O)(=O)N[C@@H](C)CO)cc1C(=O)Nc1ccc(F)c(C(F)F)c1 [Compound 35a, (S)—N-(3-(Difluoromethyl)-4-fluorophenyl)-5-(N-(1-hydroxypropan-2-yl)sulfamoyl)-2-methoxybenzamide] | 0.7 nM
COc1ccc(S(=O)(=O)NC2(CO)COC2)cc1C(=O)Nc1ccc(F)c(C)c1 [Compound 13, N-(4-Fluoro-3-methylphenyl)-5-(N-(3-(hydroxymethyl)oxetan-3-yl)sulfamoyl)-2-methoxybenzamide] | 66.3 nM
COc1ccc(S(=O)(=O)N[C@H]2C[C@H](O)C2)cc1C(=O)Nc1ccc(F)c(C(F)F)c1 [Compound 142a, N-(3-(difluoromethyl)-4-fluorophenyl)-5-(N-((trans)-3-hydroxycyclobutyl)sulfamoyl)-2-methoxybenzamide] | 2.2 nM
COc1ccc(S(=O)(=O)NC2CCN(C)CC2)cc1C(=O)Nc1ccc(F)c(C)n1 [Compound 19, N-(5-Fluoro-6-methylpyridin-2-yl)-2-methoxy-5-(N-(1-methylpiperidin-4-yl)sulfamoyl)benzamide] | 173 nM
COc1ccc(S(=O)(=O)N[C@H]2CCNC2)cc1C(=O)Nc1ccc(F)cc1F [Compound 182] | 0.3 nM
COc1ccc(S(=O)(=O)N[C@H](C)CO)cc1C(=O)Nc1ccc(F)c(C(F)F)c1 [Compound 35b, (R)—N-(3-(Difluoromethyl)-4-fluorophenyl)-5-(N-(1-hydroxypropan-2-yl)sulfamoyl)-2-methoxybenzamide] | 4.3 nM
COc1ccc(S(=O)(=O)N[C@H]2CCN(C)C2=O)cc1C(=O)Nc1ccccc1Cl (single isomer, unassigned) [Compound 54a, (S*)—N-(2-Chlorophenyl)-2-methoxy-5-(1-methyl-2-oxopyrrolidin-3-yl) sulfamoyl)benzamide] | 1.1 nM
COc1ccc(S(=O)(=O)N[C@H]2C[C@@H](O)C2)cc1C(=O)Nc1ccccc1Cl [Compound 155, N-(2-Chlorophenyl)-5-(N-((cis)-3-hydroxycyclobutyl)sulfamoyl)-2-methoxy benzamide] | 0.2 nM
COc1ccc(S(=O)(=O)NC2(C(F)(F)F)CC2)cc1C(=O)Nc1ccc(F)c(C)n1 [Compound 168, N-(5-fluoro-6-methylpyridin-2-yl)-2-methoxy-5-(N-(1-(trifluoromethyl)cyclopropyl)sulfamoyl)benzamide] | 3.9 nM
COc1ccc(S(=O)(=O)NC(C)C(N)=O)cc1C(=O)Nc1ccc(F)c(C)c1 (centres unmarked) [Compound 12, 5-(N-(1-Amino-1-oxopropan-2-yl)sulfamoyl)-N-(4-fluoro-3-methylphenyl)-2-methoxybenzamide] | 9.3 nM
CCCOc1ccc(S(=O)(=O)N[C@H]2CCOC2)cc1C(=O)Nc1ccc(F)c(C)n1 [Compound 199, (S)—N-(5-fluoro-6-methylpyridin-2-yl)-2-propoxy-5-(N-(tetrahydrofuran-3-yl)sulfamoyl) benzamide] | 3.7 nM
COc1ccc(S(=O)(=O)NC(C)CC#N)cc1C(=O)Nc1ccc(F)c(C)c1 (single isomer, unassigned) [Compound 11a, (S*)-5-(N-(1-Cyanopropan-2-yl)sulfamoyl)-N-(4-fluoro-3-methylphenyl)-2-methoxybenzamide] | 68 nM
COc1ccc(S(=O)(=O)N[C@H]2C[C@@H](O)C2)cc1C(=O)Nc1ccc(F)cn1 [Compound 157, N-(5-Fluoropyridin-2-yl)-5-(N-((cis)-3-hydroxycyclobutyl)sulfamoyl)-2-methoxybenzamide] | 53 nM
CCOc1ccc(S(=O)(=O)N[C@H]2CCOC2)cc1C(=O)Nc1ccc(F)c(C)n1 [Compound 198, (S)-2-ethoxy-N-(5-fluoro-6-methylpyridin-2-yl)-5-(N-(tetrahydrofuran-3-yl)sulfamoyl)benzamide] | 0.7 nM
COc1ccc(S(=O)(=O)N[C@H]2C[C@H](O)C2)cc1C(=O)Nc1ccc(F)cc1Cl [Compound 144a, N-(2-chloro-4-fluorophenyl)-5-(N-((trans)-3-hydroxycyclobutyl)sulfamoyl)-2-methoxybenzamide] | 0.5 nM
COc1ccc(S(=O)(=O)N[C@H]2C[C@H](O)C2)cc1C(=O)Nc1cccc(C)c1Cl [Compound 140a, N-(2-Chloro-3-methylphenyl)-5-(N-((trans)-3-hydroxycyclobutyl)sulfamoyl)-2-methoxybenzamide] | 3.9 nM
[2H]C([2H])([2H])Oc1ccc(S(=O)(=O)N[C@H]2CCOC2)cc1C(=O)Nc1ccc(F)c(C2CC2)n1 [Compound 195, (S)—N-(6-cyclopropyl-5-fluoropyridin-2-yl)-2-(methoxy-d3)-5-(N-(tetrahydrofuran-3-yl)sulfamoyl)benzamide] | 0.9 nM
COc1ccc(S(=O)(=O)NC(C)C)cc1C(=O)Nc1ccc(F)c(C)n1 [Compound 25, N-(5-Fluoro-6-methylpyridin-2-yl)-5-(N-isopropylsulfamoyl)-2-methoxy benzamide] | 1.4 nM
COc1ccc(S(=O)(=O)NC2COC[C@@H]2O)cc1C(=O)Nc1ccccc1Cl (stereo in doubt) [Compound 56a, N-(2-Chlorophenyl)-5-(N-((cis)-4-hydroxytetrahydrofuran-3-yl)sulfamoyl)-2-methoxybenzamide] | 0.1 nM

More lines, now with the values ahead:

IC50 | SMILES
0.7 nM | COc1ccc(S(=O)(=O)N[C@H]2CCNC2)cc1C(=O)Nc1ccc(F)c(C)c1 [Compound 187, (S)—N-(4-fluoro-3-methylphenyl)-2-methoxy-5-(N-(pyrrolidin-3-yl)sulfamoyl) benzamide]
79 nM | COc1ccc(S(=O)(=O)N[C@H]2CCOC2)cc1C(=O)Nc1cc(C)c(F)cn1 [Compound 161, (S)—N-(5-Fluoro-4-methylpyridin-2-yl)-2-methoxy-5-(N-(tetrahydrofuran-3-yl)sulfamoyl)benzamide]
1.2 nM | COc1ccc(S(=O)(=O)N[C@H]2CCOC2)cc1C(=O)Nc1ccccc1OC(F)F [Compound 128, (S)—N-(2-(Difluoromethoxy)phenyl)-2-methoxy-5-(N-(tetrahydrofuran-3-yl)sulfamoyl)benzamide]
0.5 nM | COc1ccc(S(=O)(=O)N[C@H]2CCOC2)cc1C(=O)Nc1ccc(F)c(C2CC2)n1 [Compound 162, (S)—N-(6-Cyclopropyl-5-fluoropyridin-2-yl)-2-methoxy-5-(N-(tetrahydrofuran-3-yl)sulfamoyl)benzamide]
4.6 nM | COc1ccc(S(=O)(=O)N[C@H]2CCOC2)cc1C(=O)Nc1ccc(F)c(C(F)(F)F)c1 [Compound 160, (S)—N-(4-Fluoro-3-(trifluoromethyl)phenyl)-2-methoxy-5-(N-(tetrahydrofuran-3-yl)sulfamoyl)benzamide]
574 nM | COc1ccc(S(=O)(=O)N[C@H]2CCOC2)cc1C(=O)Nc1c(F)cc(C#N)cc1F [Compound 80, (S)—N-(4-cyano-2,6-difluorophenyl)-2-methoxy-5-(N-(tetrahydrofuran-3-yl)sulfamoyl)benzamide]
716 nM | COc1ccc(S(=O)(=O)N[C@H]2CCOC2)cc1C(=O)Nc1ncc(C)s1 [Compound 84, (S)-2-methoxy-N-(5-methylthiazol-2-yl)-5-(N-(tetrahydrofuran-3-yl)sulfamoyl) benzamide]
2.7 nM | COc1ccc(S(=O)(=O)NC2CC2)cc1C(=O)Nc1ccc(F)cc1 [Compound 48, 5-(N-Cyclopropylsulfamoyl)-N-(4-fluorophenyl)-2-methoxybenzamide]
1.8 nM | COc1ccc(S(=O)(=O)N[C@H]2CCOC2)cc1C(=O)Nc1cc(Cl)cc(Cl)c1 [Compound 86, (S)—N-(3,5-Dichlorophenyl)-2-methoxy-5-(N-(tetrahydrofuran-3-yl)sulfamoyl) benzamide]
12 nM | COc1ccc(S(=O)(=O)N[C@H]2CCOC2)cc1C(=O)Nc1c(F)cccc1F [Compound 105, (S)—N-(2,6-Difluorophenyl)-2-methoxy-5-(N-(tetrahydrofuran-3-yl)sulfamoyl) benzamide]
37 nM | COc1ccc(S(=O)(=O)N[C@H]2CCOC2)cc1C(=O)Nc1cc(F)c(C#N)cc1F [Compound 98, (S)—N-(4-Cyano-2,5-difluorophenyl)-2-methoxy-5-(N-(tetrahydrofuran-3-yl)sulfamoyl)benzamide]
1060 nM | COc1ccc(S(=O)(=O)N[C@H]2CCOC2)cc1C(=O)Nc1c(F)ccc(Cl)c1F [Compound 93, (S)—N-(3-Chloro-2,6-difluorophenyl)-2-methoxy-5-(N-(tetrahydrofuran-3-yl)sulfamoyl)benzamide]
126 nM | COc1ccc(S(=O)(=O)N[C@H]2CCOC2)cc1C(=O)Nc1nc(C)c(C)s1 [Compound 83, (S)—N-(4,5-dimethylthiazol-2-yl)-2-methoxy-5-(N-(tetrahydrofuran-3-yl)sulfamoyl)benzamide]
27 nM | COc1ccc(S(=O)(=O)N[C@H]2CCOC2)cc1C(=O)Nc1cccc(OC(F)F)c1 [Compound 107, (S)—N-(3-(Difluoromethoxy)phenyl)-2-methoxy-5-(N-(tetrahydrofuran-3-yl)sulfamoyl)benzamide]
5.3 nM | COc1ccc(S(=O)(=O)N[C@H]2CCOC2)cc1C(=O)Nc1ccc(F)c(Cl)c1F [Compound 77, (S)—N-(3-Chloro-2,4-difluorophenyl)-2-methoxy-5-(N-(tetrahydrofuran-3-yl)sulfamoyl)benzamide]
0.9 nM | [2H]C([2H])([2H])Oc1ccc(S(=O)(=O)N[C@H]2CCOC2)cc1C(=O)Nc1ccc(F)cc1 [Compound 190, (S)—N-(4-fluorophenyl)-2-(methoxy-d3)-5-(N-(tetrahydrofuran-3-yl)sulfamoyl) benzamide]
